The values below come from PMC9150124, “Design of a Potent, Selective, and Brain-Penetrant Inhibitor of Wnt-Deactivating Enzyme Notum by Optimization of a Crystallographic Fragment Hit” (Journal of Medicinal Chemistry, 2022).

Molecules are shown by their SMILES.

Holding throughout (assay): SelectScreen kinase profiling, SSBK ZLyte SP Technology
Assay type in all cases: biochemical

Test [1] concerns the target kinase named in conditions (Homo sapiens, UniProt Q13554). As to conditions: CAMK2B (CaMKII beta), 10 μM. How it is done:
(§1) Kinase selectivity screening was performed by Thermo Fisher Scientific (Paisley, U.K.) in their SelectScreen Biochemical Kinase Profiling Service. Assay information and data are presented in the Supporting Information.
(§2) Kinase selectivity screening was performed by ThermoFisher Scientific (Paisley, U.K.) in their SelectScreenTM
(§3) Biochemical Kinase Profiling service .

Test [2] deals with kinase named in conditions (Homo sapiens, UniProt Q9BZL6). As to conditions: PRKD2 (PKD2), 10 μM. How it is done:
as §1, §2, §3

Test [3] has as its target kinase named in conditions (Homo sapiens, UniProt O43293). The conditions noted are these: DAPK3 (ZIPK), 10 μM. As for the experimental part: as §1, §2, §3
Test [4] has as its target kinase named in conditions (Homo sapiens, UniProt Q13043). As to conditions: STK4 (MST1), 10 μM. How it is done: as §1, §2, §3
In test [5] the target is kinase named in conditions (Homo sapiens, UniProt Q13557). The conditions noted are these: CAMK2D (CaMKII delta), 10 μM. As for the experimental part: as §1, §2, §3
Chain of kinase named in conditions (Homo sapiens, UniProt Q13557) (Q13557 whole entry): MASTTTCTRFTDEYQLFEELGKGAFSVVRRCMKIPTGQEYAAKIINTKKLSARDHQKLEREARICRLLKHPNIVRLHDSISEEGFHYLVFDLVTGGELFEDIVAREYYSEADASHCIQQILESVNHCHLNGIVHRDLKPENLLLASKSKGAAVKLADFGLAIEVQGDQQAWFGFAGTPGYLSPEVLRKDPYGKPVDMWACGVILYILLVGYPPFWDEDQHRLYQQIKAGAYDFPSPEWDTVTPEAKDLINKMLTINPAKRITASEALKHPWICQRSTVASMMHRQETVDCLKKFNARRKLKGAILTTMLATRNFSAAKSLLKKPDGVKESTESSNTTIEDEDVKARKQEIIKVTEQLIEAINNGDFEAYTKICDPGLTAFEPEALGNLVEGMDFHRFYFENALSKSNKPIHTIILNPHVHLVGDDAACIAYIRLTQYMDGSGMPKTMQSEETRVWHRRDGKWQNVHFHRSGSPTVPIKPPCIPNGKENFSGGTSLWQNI
Test [6] deals with kinase named in conditions (Homo sapiens, UniProt Q16566). The conditions noted are these: CAMK4 (CaMKIV), 10 μM. How it is done:
as §1, §2, §3

Test [7] addresses kinase named in conditions (Homo sapiens, UniProt Q96PY6). The conditions noted are these: NEK1, 10 μM. As for the experimental part:
as §1, §2, §3

Test [8] concerns the target kinase named in conditions (Homo sapiens, UniProt P30530). As to conditions: AXL, 10 μM. How it is done:
as §1, §2, §3

Test [9] has as its target kinase named in conditions (Homo sapiens, UniProt Q9H422). As to conditions: HIPK3 (YAK1), 10 μM. As for the experimental part:
as §1, §2, §3

In test [10] the target is kinase named in conditions (Homo sapiens, UniProt P29376). The conditions noted are these: LTK (TYK1), 10 μM. As for the experimental part: as §1, §2, §3
Test [11] has as its target kinase named in conditions (Homo sapiens, UniProt P07949, A883F). As to conditions: RET A883F, 10 μM. As for the experimental part:
as §1, §2, §3

Test [12] has as its target kinase named in conditions (Homo sapiens, UniProt O96013). As to conditions: PAK4, 10 μM. As for the experimental part: as §1, §2, §3
Test [13] addresses kinase named in conditions (Homo sapiens, UniProt Q02763, Y897S). The conditions noted are these: TEK (TIE2) Y897S, 10 μM. As for the experimental part:
as §1, §2, §3

Test [14] deals with kinase named in conditions (Homo sapiens, UniProt P00519, F317I). The conditions noted are these: ABL1 F317I, 10 μM. As for the experimental part:
as §1, §2, §3

Test [15] concerns the target kinase named in conditions (Homo sapiens, UniProt P04629). The conditions noted are these: NTRK1 (TRKA), 10 μM. As for the experimental part:
as §1, §2, §3

In test [16] the target is kinase named in conditions (Homo sapiens, UniProt Q02763). The conditions noted are these: TEK (Tie2), 10 μM. How it is done:
as §1, §2, §3

Test [17] concerns the target kinase named in conditions (Homo sapiens, UniProt Q9NWZ3). As to conditions: IRAK4, 10 μM. How it is done:
as §1, §2, §3

The target in test [18] is kinase named in conditions (Homo sapiens, UniProt Q08881). As to conditions: ITK, 10 μM. As for the experimental part: as §1, §2, §3
Chain of kinase named in conditions (Homo sapiens, UniProt Q08881) (Q08881 whole entry): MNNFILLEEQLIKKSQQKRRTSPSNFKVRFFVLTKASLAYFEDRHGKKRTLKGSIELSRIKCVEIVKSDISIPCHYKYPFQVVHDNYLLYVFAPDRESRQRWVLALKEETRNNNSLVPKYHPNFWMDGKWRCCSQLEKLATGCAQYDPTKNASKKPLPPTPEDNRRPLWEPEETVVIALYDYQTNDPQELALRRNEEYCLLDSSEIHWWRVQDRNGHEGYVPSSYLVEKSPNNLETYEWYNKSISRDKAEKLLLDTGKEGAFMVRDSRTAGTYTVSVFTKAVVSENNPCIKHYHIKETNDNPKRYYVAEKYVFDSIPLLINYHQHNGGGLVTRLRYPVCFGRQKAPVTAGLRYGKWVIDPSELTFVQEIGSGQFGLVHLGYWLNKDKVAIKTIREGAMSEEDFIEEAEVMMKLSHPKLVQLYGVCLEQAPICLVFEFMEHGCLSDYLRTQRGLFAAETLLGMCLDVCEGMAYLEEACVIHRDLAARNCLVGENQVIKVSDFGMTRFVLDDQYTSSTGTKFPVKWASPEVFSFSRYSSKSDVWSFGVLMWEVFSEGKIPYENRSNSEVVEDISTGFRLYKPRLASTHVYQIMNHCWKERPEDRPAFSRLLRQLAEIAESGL
For test [19], the target named is kinase named in conditions (Homo sapiens, UniProt P51451). As to conditions: BLK, 10 μM. As for the experimental part:
as §1, §2, §3

Test [20] has as its target kinase named in conditions (Homo sapiens, UniProt Q9HC98). The conditions noted are these: NEK6, 10 μM. How it is done:
as §1, §2, §3

The target of test [21] is kinase named in conditions (Homo sapiens, UniProt P42685). The conditions noted are these: FRK (PTK5), 10 μM. How it is done:
as §1, §2, §3

Test [22] concerns the target kinase named in conditions (Homo sapiens, UniProt Q8N752). As to conditions: CSNK1A1L, 10 μM. How it is done:
as §1, §2, §3

The target of test [23] is kinase named in conditions (Homo sapiens, UniProt P78527). As to conditions: DNA-PK, 10 μM. As for the experimental part: as §1, §2, §3

Chain of kinase named in conditions (Homo sapiens, UniProt Q9H422) (Q9H422 whole entry): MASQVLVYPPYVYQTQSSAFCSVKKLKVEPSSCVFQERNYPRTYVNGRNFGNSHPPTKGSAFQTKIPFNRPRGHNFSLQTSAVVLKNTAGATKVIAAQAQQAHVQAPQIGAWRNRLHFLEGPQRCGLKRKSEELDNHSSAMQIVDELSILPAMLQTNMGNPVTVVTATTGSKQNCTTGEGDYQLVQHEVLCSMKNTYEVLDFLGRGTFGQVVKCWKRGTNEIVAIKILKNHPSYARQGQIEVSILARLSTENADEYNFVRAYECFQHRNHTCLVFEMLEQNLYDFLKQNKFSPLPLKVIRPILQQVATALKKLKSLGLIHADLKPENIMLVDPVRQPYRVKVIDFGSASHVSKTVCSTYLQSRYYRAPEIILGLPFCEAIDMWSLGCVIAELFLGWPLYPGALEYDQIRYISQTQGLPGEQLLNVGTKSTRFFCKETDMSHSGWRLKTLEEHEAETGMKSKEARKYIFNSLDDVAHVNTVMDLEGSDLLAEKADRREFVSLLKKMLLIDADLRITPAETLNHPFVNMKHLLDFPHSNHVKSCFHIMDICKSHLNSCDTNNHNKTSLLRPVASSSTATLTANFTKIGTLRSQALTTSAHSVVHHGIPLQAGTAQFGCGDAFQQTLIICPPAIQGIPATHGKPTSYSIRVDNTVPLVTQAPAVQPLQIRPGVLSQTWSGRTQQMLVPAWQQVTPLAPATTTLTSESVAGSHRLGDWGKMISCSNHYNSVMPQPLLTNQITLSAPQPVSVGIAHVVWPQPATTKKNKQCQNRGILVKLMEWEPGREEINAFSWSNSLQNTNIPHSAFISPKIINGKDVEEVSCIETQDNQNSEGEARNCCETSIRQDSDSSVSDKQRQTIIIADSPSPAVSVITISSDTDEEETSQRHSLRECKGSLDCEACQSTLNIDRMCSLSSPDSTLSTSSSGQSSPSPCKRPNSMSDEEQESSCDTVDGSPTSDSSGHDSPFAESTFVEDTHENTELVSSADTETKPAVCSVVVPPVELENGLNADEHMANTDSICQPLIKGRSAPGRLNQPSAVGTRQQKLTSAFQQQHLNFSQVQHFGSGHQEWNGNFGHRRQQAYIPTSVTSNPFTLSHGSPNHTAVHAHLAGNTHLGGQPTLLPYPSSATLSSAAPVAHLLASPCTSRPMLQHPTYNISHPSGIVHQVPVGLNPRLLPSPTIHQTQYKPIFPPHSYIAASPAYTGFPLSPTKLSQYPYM
Chain of kinase named in conditions (Homo sapiens, UniProt Q13554) (Q13554 whole entry): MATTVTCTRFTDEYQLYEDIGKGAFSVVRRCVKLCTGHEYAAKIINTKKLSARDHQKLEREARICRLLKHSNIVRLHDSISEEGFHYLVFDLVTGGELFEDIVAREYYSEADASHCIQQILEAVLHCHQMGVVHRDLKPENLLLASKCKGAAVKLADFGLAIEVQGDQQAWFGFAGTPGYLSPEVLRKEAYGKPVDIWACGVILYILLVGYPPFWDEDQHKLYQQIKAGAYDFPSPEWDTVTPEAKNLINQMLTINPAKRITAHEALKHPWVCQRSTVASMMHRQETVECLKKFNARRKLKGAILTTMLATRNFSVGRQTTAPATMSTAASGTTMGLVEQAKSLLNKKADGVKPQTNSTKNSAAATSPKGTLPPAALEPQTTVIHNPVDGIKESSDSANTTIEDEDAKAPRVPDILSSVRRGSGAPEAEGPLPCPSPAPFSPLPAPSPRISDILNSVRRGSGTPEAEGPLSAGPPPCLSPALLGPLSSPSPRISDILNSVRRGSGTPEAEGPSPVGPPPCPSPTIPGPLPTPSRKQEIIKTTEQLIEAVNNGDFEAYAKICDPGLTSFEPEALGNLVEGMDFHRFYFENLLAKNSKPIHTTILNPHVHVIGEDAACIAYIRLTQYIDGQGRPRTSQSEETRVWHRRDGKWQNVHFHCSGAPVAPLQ
Chain of kinase named in conditions (Homo sapiens, UniProt P04629) (P04629 33-796): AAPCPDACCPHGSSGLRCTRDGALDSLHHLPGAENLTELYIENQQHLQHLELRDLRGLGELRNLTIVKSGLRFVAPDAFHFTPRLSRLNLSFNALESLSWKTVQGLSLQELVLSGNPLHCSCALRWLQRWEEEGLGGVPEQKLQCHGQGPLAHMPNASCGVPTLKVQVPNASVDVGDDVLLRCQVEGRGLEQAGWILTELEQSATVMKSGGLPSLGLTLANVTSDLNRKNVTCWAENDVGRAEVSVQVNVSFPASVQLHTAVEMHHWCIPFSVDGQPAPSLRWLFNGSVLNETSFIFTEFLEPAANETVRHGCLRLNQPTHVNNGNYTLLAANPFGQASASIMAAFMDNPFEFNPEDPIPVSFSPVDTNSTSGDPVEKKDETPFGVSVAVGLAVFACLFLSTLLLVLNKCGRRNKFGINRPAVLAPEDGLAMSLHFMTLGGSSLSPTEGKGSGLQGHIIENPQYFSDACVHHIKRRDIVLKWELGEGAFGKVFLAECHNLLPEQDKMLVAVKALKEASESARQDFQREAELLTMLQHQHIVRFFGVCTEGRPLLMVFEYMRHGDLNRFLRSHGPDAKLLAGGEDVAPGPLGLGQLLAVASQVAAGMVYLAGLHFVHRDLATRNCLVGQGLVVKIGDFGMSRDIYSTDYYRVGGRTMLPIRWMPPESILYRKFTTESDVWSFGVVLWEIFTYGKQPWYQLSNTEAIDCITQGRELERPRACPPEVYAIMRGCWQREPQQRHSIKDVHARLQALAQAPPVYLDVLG
Chain of kinase named in conditions (Homo sapiens, UniProt P07949, A883F) (P07949 29-1114 A883F): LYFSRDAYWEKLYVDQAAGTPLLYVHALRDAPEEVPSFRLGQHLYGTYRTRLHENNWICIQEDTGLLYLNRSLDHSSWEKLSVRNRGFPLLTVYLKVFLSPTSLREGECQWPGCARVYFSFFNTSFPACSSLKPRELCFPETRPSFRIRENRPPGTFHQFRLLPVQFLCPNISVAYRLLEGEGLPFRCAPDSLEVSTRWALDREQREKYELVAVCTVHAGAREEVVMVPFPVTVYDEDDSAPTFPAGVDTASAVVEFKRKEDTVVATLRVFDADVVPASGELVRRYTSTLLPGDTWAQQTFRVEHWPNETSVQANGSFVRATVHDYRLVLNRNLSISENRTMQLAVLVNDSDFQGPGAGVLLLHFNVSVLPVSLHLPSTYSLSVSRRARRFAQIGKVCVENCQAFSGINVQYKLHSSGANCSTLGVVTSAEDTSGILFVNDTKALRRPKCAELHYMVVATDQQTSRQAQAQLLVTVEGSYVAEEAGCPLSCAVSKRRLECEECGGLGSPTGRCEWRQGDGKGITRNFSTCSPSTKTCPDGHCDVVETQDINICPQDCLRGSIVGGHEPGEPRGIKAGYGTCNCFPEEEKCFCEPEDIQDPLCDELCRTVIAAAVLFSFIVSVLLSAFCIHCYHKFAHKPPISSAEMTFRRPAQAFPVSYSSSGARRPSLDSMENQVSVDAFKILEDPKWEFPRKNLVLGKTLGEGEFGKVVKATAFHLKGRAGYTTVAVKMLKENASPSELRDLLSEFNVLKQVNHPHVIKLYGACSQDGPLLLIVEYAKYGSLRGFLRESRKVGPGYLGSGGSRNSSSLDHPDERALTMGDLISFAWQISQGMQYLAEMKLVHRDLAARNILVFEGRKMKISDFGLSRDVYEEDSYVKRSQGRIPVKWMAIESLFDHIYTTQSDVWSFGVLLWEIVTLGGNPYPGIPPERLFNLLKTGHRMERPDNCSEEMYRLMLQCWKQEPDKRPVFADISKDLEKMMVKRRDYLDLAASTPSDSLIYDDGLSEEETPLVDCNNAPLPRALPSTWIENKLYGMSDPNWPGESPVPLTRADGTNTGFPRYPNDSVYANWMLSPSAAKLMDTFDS

In the case of `FC(F)(F)c1c(Cl)ccc(-n2ccnn2)c1Cl` [8l, 1-(2,4-Dichloro-3-(trifluoromethyl)phenyl)-1H-1,2,3-triazole], the inhibition (usually the drop in the measured response relative to a control, in per cent) at 10 µM was 4% in test [1]; 0% in test [2]; 8% in [3]; 1% in test [4]; 7% in test [5]; 15% in test [6]. Also, the inhibition at 10 µM in [7] was found to be 1%; in test [8], 4%; in test [9], 3%; in test [10] it was 4%; in test [11], 10%; in test [12], 2%. The inhibition at 10 µM is 2% in test [13]; 13% in [14]; 3% in [15]; -1% in test [16]; 5% in [17]; -4% in test [18]. Besides, the inhibition at 10 µM is 2% in [19]; 12% in test [20]; 1% in test [21]; -2% in [22]; 0% in [23].
